Data: patent US7256198B2, “Pyrimidoindolones and methods for using same” (Wyeth, priority 2004, dated 2007)

Each compound was assayed against T1, recombinant caspase 3 (Homo sapiens, UniProt P42574) (assay: Caspase 3 Inhibition Assay (Ac-DEVD-AFC fluorogenic substrate cleavage)). Conditions: @ 1 μM compound; recombinant caspase 3, Ac-DEVD-AFC 25 μM, pH 7.2, 23° C.; read-out: percent inhibition at the highest compound concentration.
T1 construct: His tag (C); made in house; host or cells: E. coli
T1 sequence (P42574 29-175 limits assumed): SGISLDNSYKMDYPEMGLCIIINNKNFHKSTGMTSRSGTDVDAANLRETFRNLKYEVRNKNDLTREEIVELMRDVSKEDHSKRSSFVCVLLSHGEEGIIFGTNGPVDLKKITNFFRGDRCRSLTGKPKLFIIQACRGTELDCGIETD
T1 sequence (P42574 176-277 limits assumed): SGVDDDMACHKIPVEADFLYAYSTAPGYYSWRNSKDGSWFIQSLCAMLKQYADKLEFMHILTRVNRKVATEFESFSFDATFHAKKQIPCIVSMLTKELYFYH
Format: biochemical
Protocol: Caspase 3 was expressed intracellularly in E. coli with a c-terminal His tag. Fermentation was performed at 25° C. in a B. Braun Biotech Biostat C 10 liter bioreactor vessel. The culture was collected in IL bottles and centrifuged in Komspin KA-7.1000 rotors at approximately 8000 RCF (Relative Centrifugal Force). The cell pellets were re-suspended in 20 mM Tris pH 8.0, 500 mM NaCl, and 5 mM imidazole. The cell suspension was disrupted by passing 5 times through a microfluidizer Model 110Y (Microfluidics Corp, Newton, Mass). After centrifugation (13 kg, 30 min at 4 C), the supernatant was applied to a column of Nickle-NTA agarose. The Caspase 3 was eluted with a gradient of 5 mM to 150 mM imidazole in the above buffer. Fractions containing Caspase 3 were pooled and concentrated with a Millipore Ultrafree filtration device. The concentrated Caspase 3 solution was loaded unto a TSK gel G3000sw column (Tosoh Bioseph LLC), equilibrated with a buffer of 20 mM PIPES pH 7.2, 100 mM NaCl, 1 mM EDTA & 5 mM Cysteine. Fractions containing Caspase 3 were pooled and concentrated. Sometimes CHAPS was added to 0.1% and sucrose to 10% into the protein sample.
Caspase 3 was assayed at 23° C. (room temp) in 96-well plates using the internally quenched tetrapeptide substrate N-acetyl-aspartyl-glutamyl-valyl-aspartate-7-amino-4-trifluoromethyl coumarin (Ac-DEVD-AFC purchased from Biomol). The assays are conducted at pH 7.2 in a buffered system containing 20 mM PIPES, 100 mM NaCl, 1 mM EDTA, 0.1% CHAPS, 10% sucrose and 5 mM L-cysteine. […] A steady state rate of substrate cleavage is obtained for analysis.
The progress curves generated were fitted by computer to equation 1 to generate an IC50 value. Equation 1: y=Bmax*(1−(x^n/(K^n+x^n))), where Bmax is rate in the absence of inhibitor.
An inhibition at 1 µM of 10% was found for COC[C@@H]1CCCN1C(=O)c1ccc2c(c1)C(=O)C1=NCC(C)(C)CN12 [Example 75, 8-{[(2S)-2-(Methoxymethyl)pyrrolidin-1-yl]carbonyl}-3,3-dimethyl-3,4-dihydropyrimido[1,2-a]indol-10(2H)-one] in this work.

Same assay, conditions: @ 50 μM compound; recombinant caspase 3, Ac-DEVD-AFC 25 μM, pH 7.2, 23° C.; read-out: percent inhibition at the highest compound concentration
An inhibition at 50 µM of 10% was found for Cc1ccc2c(c1)C(=O)C1=NCCCN12 [Example 10, 8-Methyl-3,4-dihydropyrimido[1,2-a]indol-10(2H)-one] in this work. An inhibition at 50 µM of 28% was found for CC(=O)N1CCN(C(=O)c2ccc3c(c2)C(=O)C2=NCC(C)(C)CN23)CC1 [Example 82, 8-[(4-Acetylpiperazin-1-yl)carbonyl]-3,3-dimethyl-3,4-dihydropyrimido[1,2-a]indol-10(2H)-one] in this work. An inhibition at 50 µM of 36% was found for CC1(C)CN=C2C(=O)c3cc(C(=O)Nc4ccccc4)ccc3N2C1 [Example 76, 3,3-Dimethyl-10-oxo-N-phenyl-2,3,4,10-tetrahydropyrimido[1,2-a]indole-8-carboxamide] in this work. An inhibition at 50 µM of 26% was found for CC1(C)CN=C2C(=O)c3cc(S(=O)(=O)N4CCC[C@H]4COc4cccnc4Br)ccc3N2C1 [Example 35, 8-[((2S)-2-{[(2-Bromopyridin-3-yl)oxy]methyl}pyrrolidin-1-yl)sulfonyl]-3,3-dimethyl-3,4-dihydropyrimido[1,2-a]indol-10(2H)-one] in this work. An inhibition at 50 µM of 29% was found for CN1CCN(C(=O)c2ccc3c(c2)C(=O)C2=NCC(C)(C)CN23)CC1 [Example 81, 3,3-Dimethyl-8-[(4-methylpiperazin-1-yl)carbonyl]-3,4-dihydropyrimido[1,2-a]indol-10(2H)-one] in this work. An inhibition at 50 µM of 9% was found for COc1ccc2c(c1)C(=O)C1=NCCCN12 [Example 11, 8-Methoxy-3,4-dihydropyrimido[1,2-a]indol-10(2H)-one] in this work. An inhibition at 50 µM of 37% was found for CC1(C)CN=C2C(=O)c3cc(C(=O)N4CCCC4)ccc3N2C1 [Example 78, 3,3-Dimethyl-8-(pyrrolidin-1-ylcarbonyl)-3,4-dihydropyrimido[1,2-a]indol-10(2H)-one] in this work. An inhibition at 50 µM of 46% was found for CC1(C)CN=C2C(=O)c3cc(C(=O)N4CCc5ccccc54)ccc3N2C1 [Example 80, 8-(2,3-Dihydro-1H-indol-1-ylcarbonyl)-3,3-dimethyl-3,4-dihydropyrimido[1,2-a]indol-10(2H)-one] in this work.

Same assay, conditions: recombinant caspase 3 0.25 nM, Ac-DEVD-AFC 25 μM, pH 7.2, 23° C.
An IC50 of 4590 nM was found for O=C1C2=NCCCN2c2cc(Cl)c([N+](=O)[O-])cc21 [Example 15, 7-Chloro-8-nitro-3,4-dihydropyrimido[1,2-a]indol-10(2H)-one] in this work. An IC50 of 285 nM was found for CC1(C)CN=C2C(=O)c3cc(NS(=O)(=O)c4ccc(F)c(Cl)c4)ccc3N2C1 [Example 52, 3-Chloro-N-(3,3-dimethyl-10-oxo-2,3,4,10-tetrahydropyrimido[1,2-a]indol-8-yl)-4-fluorobenzenesulfonamide] in this work. An IC50 of 874 nM was found for CC1(C)CN=C2C(=O)c3cc(Cl)ccc3N2C1 [Example 14, 8′-Chloro-3′,3′-dimethyl-3′,4′-dihydropyrimido[1,2-a]indol-10(2H)-one] in this work. An IC50 of 23.4 nM was found for CC1(C)CN=C2C(=O)c3cc(NS(=O)(=O)c4cccc(Br)c4)ccc3N2C1 [Example 50, 3-Bromo-N-(3,3-dimethyl-10-oxo-2,3,4,10-tetrahydropyrimido[1,2-a]indol-8-yl)benzenesulfonamide] in this work. An IC50 of 19 nM was found for Cc1ccc(OC[C@@H]2CCCN2S(=O)(=O)c2ccc3c(c2)C(=O)C2=NCC(C)(C)CN23)cn1 [Example 44, 3,3-Dimethyl-8-[((2S)-2-{[(6-methylpyridin-3-yl)oxy]methyl}pyrrolidin-1-yl)sulfonyl]-3,4-dihydropyrimido[1,2-a]indol-10(2H)-one] in this work. An IC50 of 189 nM was found for COC[C@@H]1CCCN1S(=O)(=O)c1cc2c(cc1Cl)N1CCCN=C1C2=O [Example 5, 7-Chloro-8-{[(2S)-2-(methoxymethyl)pyrrolidin-1-yl-]sulfonyl}-3,4-dihydropyrimido[1,2-a]indol-10(2H)-one] in this work. An IC50 of 49 nM was found for Cc1ccc(OC[C@@H]2CCCN2S(=O)(=O)c2ccc3c(c2)C(=O)C2=NCC(C)(C)CN23)cc1 [Example 24, 3,3-Dimethyl-8-({(2S)-2-[(4-methylphenoxy)methyl]pyrrolidin-1-yl}sulfonyl)-3,4-dihydropyrimido[1,2-a]indol-10(2H)-one] in this work. An IC50 of 45 nM was found for CC1(C)CN=C2C(=O)c3cc(S(=O)(=O)N4CCC[C@H]4COc4cccc(C(F)(F)F)c4)ccc3N2C1 [Example 31, 3,3-Dimethyl-8-[((2S)-2-{[3-(trifluoromethyl)phenoxy]methyl}pyrrolidin-1-yl)sulfonyl]-3,4-dihydropyrimido[1,2-a]indol-10(2H)-one] in this work. An IC50 of 17 nM was found for Cc1ccc(OC[C@@H]2CCCN2S(=O)(=O)c2ccc3c(c2)C(=O)C2=NCC(C)(C)CN23)c(I)n1 [Example 46, 8-[((2S)-2-{[(2-Iodo-6-methylpyridin-3-yl)oxy]methyl}pyrrolidin-1-yl)sulfonyl]-3,3-dimethyl-3,4-dihydropyrimido[1,2-a]indol-10(2H)-one] in this work. An IC50 of 14 nM was found for CC1(C)CN=C2C(=O)c3cc(S(=O)(=O)N4CCC[C@H]4COc4ccc(C(F)(F)F)cn4)ccc3N2C1 [Example 42, 3,3-Dimethyl-8-{[(2S)-2-({[5-(trifluoromethyl)pyridin-2-yl]oxy}methyl)pyrrolidin-1-yl]sulfonyl}-3,4-dihydropyrimido[1,2-a]indol-10(2H)-one] in this work. An IC50 of 98 nM was found for Cc1ccc(OC[C@@H]2CCCN2S(=O)(=O)c2ccc3c(c2)C(=O)C2=NCC(C)(C)CN23)c(Cl)c1 [Example 26, 8-({(2S)-2-[(2-Chloro-4-methylphenoxy)methyl]pyrrolidin-1-yl}sulfonyl)-3,3-dimethyl-3,4-dihydropyrimido[1,2-a]indol-10(2H)-one] in this work. An IC50 of 5 nM was found for CC1(C)CN=C2C(=O)c3cc(S(=O)(=O)N4CCC[C@H]4COc4cccc(Cl)n4)ccc3N2C1 [Example 40, 8-[((2S)-2-{[(6-Chloropyridin-2-yl)oxy]methyl}pyrrolidin-1-yl)sulfonyl]-3,3-dimethyl-3,4-dihydropyrimido[1,2-a]indol-10(2H)-one] in this work. An IC50 of 3140 nM was found for CC1(C)CN=C2C(=O)c3cc(NS(=O)(=O)c4cc(C(F)(F)F)cc(C(F)(F)F)c4)ccc3N2C1 [Example 62, N-(3,3-Dimethyl-10-oxo-2,3,4,10-tetrahydropyrimido[1,2-a]indol-8-yl)-3,5-bis(trifluoromethyl)benzenesulfonamide] in this work. An IC50 of 1210 nM was found for CC1(C)CN=C2C(=O)c3cc(S(=O)(=O)N4c5ccccc5C[C@H]4COc4ccccc4)ccc3N2C1 [Example 34, 3,3-Dimethyl-8-{[(2S)-2-(phenoxymethyl)-2,3-dihydro-1H-indol-1-yl]sulfonyl}-3,4-dihydropyrimido[1,2-a]indol-10(2H)-one] in this work. An IC50 of 714 nM was found for Cc1ccc(S(=O)(=O)Nc2ccc3c(c2)C(=O)C2=NCC(C)(C)CN23)cc1 [Example 51, N-(3,3-Dimethyl-10-oxo-2,3,4,10-tetrahydropyrimido[1,2-a]indol-8-yl)-4-methylbenzenesulfonamide] in this work. An IC50 of 45 nM was found for COC[C@@H]1CCCN1S(=O)(=O)c1ccc2c(c1)C(=O)C1=NCC3(CCCCCC3)CN12 [85/86, 8′-{[(2S)-2-(methoxymethyl)pyrrolidin-1-yl]sulfonyl}spiro[cycloheptane-1,3′-pyrimido[1,2-a]indol]-10′(2′H)-one] in this work. An IC50 of 99 nM was found for CC1(C)CN=C2C(=O)c3cc(C#N)ccc3N2C1 [Example 20, 3,3-Dimethyl-10-oxo-2,3,4,10-tetrahydropyrimido[1,2-a]indole-8-carbonitrile] in this work.
